Measured values as given in patent US8729061B2, “Pyrrolidine derivatives” (Hoffmann-La Roche Inc., priority 2011, dated 2014).
pIC50: −log10 of the molar value.

Columns and labels:
Format in all cases: biochemical
[1] = molecular target: human Cathepsin S (Homo sapiens (Human), UniProt P25774); experiment: Cathepsin enzyme inhibition assay (fluorogenic peptide substrate), Cat S; conditions: enzyme 1 nM, substrate Z-Val-Val-Arg-AMC 20 μM, pH 6.5
Procedure: (§1) Enzyme activity is measured by observing the increase in fluorescence intensity caused by cleavage of a peptide substrate containing a fluorophore whose emission is quenched in the intact peptide.
(§2) Assay buffer: 100 mM potassium phosphate pH 6.5, EDTA-Na 5 mM, Triton X-100 0.001%, DTT 5 mM.
(§3) Enzymes (all at 1 nM): human and mouse Cathepsin S, Cat K, Cat B, Cat L. Substrate (20 μM): Z-Val-Val-Arg-AMC, except for Cat K which uses Z-Leu-Arg-AMC (both from Bachem).
(§4) Excitation 360 nm, Emission 465 nm.
(§5) Enzyme is added to the substance dilutions in 96-well microtitre plates and the reaction is started with substrate. […] IC50 are calculated by standard methods. Inhibition of human Cat S, mouse Cat S, human Cat K, mouse Cat K, human Cat B, mouse Cat B, human Cat L and mouse Cat L have been measured separately.

[2] = molecular target: human Cat K (Homo sapiens (Human), UniProt P43235); experiment: Cathepsin enzyme inhibition assay (fluorogenic peptide substrate), Cat K; conditions: enzyme 1 nM, substrate Z-Leu-Arg-AMC 20 μM, pH 6.5
Procedure: as §1, §2, §3, §4, §5

[3] = molecular target: human Cat B (Homo sapiens (Human), UniProt P07858); experiment: Cathepsin enzyme inhibition assay (fluorogenic peptide substrate), Cat B; conditions: enzyme 1 nM, substrate Z-Val-Val-Arg-AMC 20 μM, pH 6.5
Procedure: as §1, §2, §3, §4, §5

[4] = molecular target: human Cat L (Homo sapiens (Human), UniProt P07711); experiment: Cathepsin enzyme inhibition assay (fluorogenic peptide substrate), Cat L; conditions: enzyme 1 nM, substrate Z-Val-Val-Arg-AMC 20 μM, pH 6.5
Procedure: as §1, §2, §3, §4, §5

Chain of human Cat K (P43235 115-329): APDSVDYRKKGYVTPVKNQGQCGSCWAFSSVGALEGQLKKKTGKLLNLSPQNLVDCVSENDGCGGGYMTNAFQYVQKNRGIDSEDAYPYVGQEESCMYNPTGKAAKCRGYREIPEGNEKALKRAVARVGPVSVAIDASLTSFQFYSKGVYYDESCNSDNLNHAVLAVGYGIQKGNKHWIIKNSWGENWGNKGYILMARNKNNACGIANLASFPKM
Chain of human Cat L (P07711 114-333): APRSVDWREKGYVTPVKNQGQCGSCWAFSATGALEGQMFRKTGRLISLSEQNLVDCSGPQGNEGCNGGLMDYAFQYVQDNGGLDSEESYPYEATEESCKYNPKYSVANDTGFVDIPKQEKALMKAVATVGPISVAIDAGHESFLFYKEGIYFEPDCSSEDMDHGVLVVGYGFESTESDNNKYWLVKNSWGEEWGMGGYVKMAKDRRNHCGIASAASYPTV
Chain of human Cathepsin S (P25774 115-331): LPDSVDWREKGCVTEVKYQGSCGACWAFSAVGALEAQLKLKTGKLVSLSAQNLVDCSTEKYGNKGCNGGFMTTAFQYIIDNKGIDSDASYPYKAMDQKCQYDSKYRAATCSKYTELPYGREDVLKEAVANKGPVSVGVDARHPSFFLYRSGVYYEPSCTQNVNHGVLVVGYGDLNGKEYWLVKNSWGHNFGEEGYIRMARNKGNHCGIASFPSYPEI

SMILES | pIC50 [1] | pIC50 [2] | pIC50 [3] | pIC50 [4]
CC[C@H](NC(=O)[C@@H]1C[C@@H](S(=O)(=O)c2ccc(C)cc2C)CN1C(=O)OC(C)(C)C)C(=O)C(=O)NC1CC1 [Example 1, (2S,4R)-tert-butyl 2-((S)-1-(cyclopropylamino)-1,2-dioxopentan-3-ylcarbamoyl)-4-(2,4-dimethylphenylsulfonyl)pyrrolidine-1-carboxylate] | 9.08 | 5.10 | 4.96 | 5.72
CC[C@H](NC(=O)[C@@H]1C[C@@H](S(=O)(=O)c2ccccc2C(F)(F)F)CN1c1ccccc1[N+](=O)[O-])C(=O)c1nc2ccccc2o1 [Example 5, (2S,4R)-1-(2-Nitro-phenyl)-4-(2-trifluoromethyl-benzenesulfonyl)-pyrrolidine-2-carboxylic acid [(S)-1-(benzooxazole-2-carbonyl)-propyl]-amide] | 8.74 |  | 3.98 | 
CC[C@H](NC(=O)[C@@H]1C[C@@H](S(=O)(=O)c2ccccc2Cl)CN1C(=O)C1(c2ccc(Cl)cc2)CC1)C(=O)C(=O)NC1CC1 [Example 8, (2S,4R)-1-(1-(4-chlorophenyl)cyclopropanecarbonyl)-4-(2-chlorophenylsulfonyl)-N—((S)-1-(cyclopropylamino)-1,2-dioxopentan-3-yl)pyrrolidine-2-carboxamide] | 9.53 | 7.56 | 7.20 | 8.37
CCC[C@H](NC(=O)[C@@H]1C[C@@H](S(=O)(=O)c2ccccc2Cl)CN1C(=O)C1(c2ccc(Cl)cc2)CC1)C(=O)C(=O)NC1CC1 [Example 9, (2S,4R)-1-(1-(4-chlorophenyl)cyclopropanecarbonyl)-4-(2-chlorophenylsulfonyl)-N—((S)-1-(cyclopropylamino)-1,2-dioxohexan-3-yl)pyrrolidine-2-carboxamide] | 9.44 | 7.71 | 7.36 | 8.33
CC[C@H](NC(=O)[C@@H]1C[C@@H](S(=O)(=O)c2ccccc2Cl)CN1C(=O)C1(c2ccc(Cl)cc2)CC1)C(=O)c1nc2ccccc2o1 [Example 12, (2S,4R)—N—((S)-1-(benzo[d]oxazol-2-yl)-1-oxobutan-2-yl)-1-(1-(4-chlorophenyl)cyclopropanecarbonyl)-4-(2-chlorophenylsulfonyl)pyrrolidine-2-carboxamide] | 9.13 | 6.44 | 6.74 | 7.67
CC[C@H](NC(=O)[C@@H]1C[C@@H](S(=O)(=O)c2ccccc2Cl)CN1C(=O)C1(c2ccc(Cl)cc2F)CC1)C(=O)C(=O)NC1CC1 [Example 13, (2S,4R)-1-(1-(4-chloro-2-fluorophenyl)cyclopropanecarbonyl)-4-(2-chlorophenylsulfonyl)-N—((S)-1-(cyclopropylamino)-1,2-dioxopentan-3-yl)pyrrolidine-2-carboxamide] | 9.15 | 7.17 | 6.85 | 7.95
CC[C@H](NC(=O)[C@@H]1C[C@@H](S(=O)(=O)c2ccccc2Cl)CN1C(=O)C1(c2ccc(I)cc2)CC1)C(=O)C(=O)NC1CC1 [Example 17, (2S,4R)-4-(2-chlorophenylsulfonyl)-N—((S)-1-(cyclopropylamino)-1,2-dioxopentan-3-yl)-1-(1-(4-iodophenyl)cyclopropanecarbonyl)pyrrolidine-2-carboxamide] | 9.19 | 7.52 |  | 8.00
CC(C)[C@H](NC(=O)[C@@H]1C[C@@H](S(=O)(=O)c2ccccc2Cl)CN1C(=O)C1(c2ccc(Cl)cc2)CC1)C(=O)C(=O)NC1CC1 [Example 28, (2S,4R)-1-(1-(4-chlorophenyl)cyclopropanecarbonyl)-4-(2-chlorophenylsulfonyl)-N—((S)-1-(cyclopropylamino)-4-methyl-1,2-dioxopentan-3-yl)pyrrolidine-2-carboxamide] | 9.48 |  | 7.01 | 8.28
CCCCNC(=O)C(=O)[C@H](CC)NC(=O)[C@@H]1C[C@@H](S(=O)(=O)c2ccccc2Cl)CN1C(=O)C1(c2ccc(Cl)cc2)CC1 [Example 31, (2S,4R)—N—((S)-1-(butylamino)-1,2-dioxopentan-3-yl)-1-(1-(4-chlorophenyl)cyclopropanecarbonyl)-4-(2-chlorophenylsulfonyl)pyrrolidine-2-carboxamide] |  | 7.45 | 7.32 | 7.95
CCC[C@H](NC(=O)[C@@H]1C[C@@H](S(=O)(=O)c2ccc(Cl)cc2Cl)CN1C(=O)C1(c2ccc(Cl)cc2)CC1)C(=O)C(=O)NC1CC1 [Example 42, (2S,4R)-1-(1-(4-chlorophenyl)cyclopropanecarbonyl)-N—((S)-1-(cyclopropylamino)-1,2-dioxohexan-3-yl)-4-(2,4-dichlorophenylsulfonyl)pyrrolidine-2-carboxamide] | 9.20 | 7.54 | 6.94 | 
CCNC(=O)C(=O)[C@H](CC)NC(=O)[C@@H]1C[C@@H](S(=O)(=O)c2ccccc2Cl)CN1C(=O)C1(c2ccc(Cl)cc2)CC1 [Example 43, (2S,4R)-1-(1-(4-chlorophenyl)cyclopropanecarbonyl)-4-(2-chlorophenylsulfonyl)-N—((S)-1-(ethylamino)-1,2-dioxopentan-3-yl)pyrrolidine-2-carboxamide] | 9.29 |  | 6.95 | 7.87
CC(C)[C@H](NC(=O)[C@@H]1C[C@@H](S(=O)(=O)c2ccccc2Cl)CN1C(=O)C1(c2ncc(Cl)cc2F)CC1)C(=O)C(=O)NC1CC1 [Example 58, (2S,4R)-1-(1-(5-chloro-3-fluoropyridin-2-yl)cyclopropanecarbonyl)-4-(2-chlorophenylsulfonyl)-N—((S)-1-(cyclopropylamino)-4-methyl-1,2-dioxopentan-3-yl)pyrrolidine-2-carboxamide] |  | 7.31 | 6.49 | 9.05

Second part, the molecule after the results:

pIC50 [1] | pIC50 [2] | pIC50 [3] | pIC50 [4] | SMILES
 | 5.03 | 4.65 | 5.59 | CC[C@H](NC(=O)[C@@H]1C[C@@H](S(=O)(=O)c2ccc(Cl)cc2C)CN1C(=O)OC(C)(C)C)C(=O)C(=O)NC1CC1 [Example 2, (2S,4R)-tert-butyl 4-(4-chloro-2-methylphenylsulfonyl)-2-((S)-1-(cyclopropylamino)-1,2-dioxopentan-3-ylcarbamoyl)pyrrolidine-1-carboxylate]
9.00 | 5.13 | 5.50 | 5.81 | CC[C@H](NC(=O)[C@@H]1C[C@@H](S(=O)(=O)c2ccccc2C(F)(F)F)CN1c1ccccc1[N+](=O)[O-])C(=O)C(=O)NC1CC1 [Example 3, (2S,4R)—N—((S)-1-(cyclopropylamino)-1,2-dioxopentan-3-yl)-1-(2-nitrophenyl)-4-(2-(trifluoromethyl)phenylsulfonyl)pyrrolidine-2-carboxamide]
8.53 | 5.23 | 5.53 | 6.26 | CC[C@H](NC(=O)[C@@H]1C[C@@H](S(=O)(=O)c2ccc(F)cc2C(F)(F)F)CN1c1cc(C)nn1C1CCC1)C(=O)C(=O)NC1CC1 [Example 4, (2S,4R)-1-(1-cyclobutyl-3-methyl-1H-pyrazol-5-yl)-N—((S)-1-(cyclopropylamino)-1,2-dioxopentan-3-yl)-4-(4-fluoro-2-(trifluoromethyl)phenylsulfonyl)pyrrolidine-2-carboxamide]
9.01 | 6.78 | 5.89 | 6.69 | CC[C@H](NC(=O)[C@@H]1C[C@@H](S(=O)(=O)c2ccc(Br)cc2C(F)(F)F)CN1c1cc(C)nn1C1CCC1)C(=O)C(=O)NC1CC1 [Example 6, (2S,4R)-4-(4-bromo-2-(trifluoromethyl)phenylsulfonyl)-1-(1-cyclobutyl-3-methyl-1H-pyrazol-5-yl)-N—((S)-1-(cyclopropylamino)-1,2-dioxopentan-3-yl)pyrrolidine-2-carboxamide]
8.42 | 4.95 | 5.73 | 5.52 | CC[C@H](NC(=O)[C@@H]1C[C@@H](S(=O)(=O)c2ccccc2C(F)(F)F)CN1C(=O)C1(C(F)(F)F)CC1)C(=O)C(=O)NC1CC1 [Example 7, (2S,4R)—N—((S)-1-(cyclopropylamino)-1,2-dioxopentan-3-yl)-1-(1-(trifluoromethyl)cyclopropanecarbonyl)-4-(2-(trifluoromethyl)phenylsulfonyl)pyrrolidine-2-carboxamide]
8.54 | 6.93 | 6.08 | 7.26 | CC[C@H](NC(=O)[C@@H]1C[C@@H](S(=O)(=O)c2ccc(OCC(F)(F)F)cc2Cl)CN1C(=O)C1(c2ncc(Cl)cc2F)CC1)C(=O)C(=O)NC1CC1 [Example 10, (2S,4R)-1-(1-(5-chloro-3-fluoropyridin-2-yl)cyclopropanecarbonyl)-4-(2-chloro-4-(2,2,2-trifluoroethoxy)phenylsulfonyl)-N—((S)-1-(cyclopropylamino)-1,2-dioxopentan-3-yl)pyrrolidine-2-carboxamide]
8.86 | 6.41 | 6.54 | 7.20 | CC[C@H](NC(=O)[C@@H]1C[C@@H](S(=O)(=O)c2ccc(OCC(F)(F)F)cc2C(F)(F)F)CN1C(=O)C1(c2ccc(Cl)cc2)CC1)C(=O)C(=O)NC1CC1 [Example 11]
